Test results reported in patent US8486957B2, “Chemotherapeutic for inducing an MSH2-dependent apoptotic pathway” (Wake Forest University Health Sciences, priority 2007, dated 2013).
Where two headings read alike, the source gives them in different places.

Legend:
[1] = tested on: MSH2-proficient HEC59 cells with chromosome 2 transfer (HEC59 chr.2); experiment: Cell viability (MTS) assay, MSH2-proficient cells; type: cell-based, human; settings: for IC50: 24 h exposure; for induction of cell death: MSH2-proficient cells
Procedure: (§1) Cells proficient and deficient in MSH2 were exposed to increasing concentrations of the drugs and cell survival determined in an MTS assay. This assay is based on the mitochondrial activity of living cells that reduces the tetrazolium product (MTS) into a formazan product that can be spectrophotometrically analyzed at OD490.
(§2) Cell Viability assays. HEC59 cells and their isogenic counterpart with chromosome 2 transfer were grown in standard growth media of DMEM-F12+10% FBS. Cells were plated in 96 well plates at an appropriate concentration in 100 μl media and incubated overnight. Media was replaced with fresh media containing drug and allowed to incubate for 24 hrs at indicated concentrations. Untreated cells received fresh media containing 0.1% DMSO. One solution reagent (CellTiter 96(r) AQueous One Solution) is added to existing media (20 μl/well) and allowed to incubate 3-4 hrs. A plate reader was used to record the absorbance at 490 nm.
(§3) The CellTiter 96® AQueous One Solution Cell Proliferation Assay® is a colorimetric method for determining the number of viable cells in proliferation, cytotoxicity or chemosensitivity assays. The CellTiter 96® AQueous One Solution Reagent contains a tetrazolium compound [3-(4,5-dimethylthiazol-2-yl)-5-(3-carboxymethoxyphenyl)-2-(4-sulfophenyl)-2H-tetrazolium, inner salt; MTS] and an electron coupling reagent (phenazine ethosulfate; PES). PES has enhanced chemical stability, which allows it to be combined with MTS to form a stable solution. The quantity of formazan product as measured by the amount of 490 nm absorbance is directly proportional to the number of living cells in culture.
(§4) Dose-dependent response to nineteen increasing concentrations of the respective compound was determined, and analyzed for IC50 values using GraphPad Prism 4™. Each compound was analyzed in triplicates.

[2] = tested on: MSH2-deficient HEC59 cells; experiment: Cell viability (MTS) assay, MSH2-deficient cells; type: cell-based, human; settings: for IC50 / MSH2 dependence of cell death response (words): 24 h exposure; for Fold difference: IC50 MSH2-deficient vs MSH2-proficient cells, 24 h; for MSH2 dependence of cell death response (words): MSH2-deficient vs -proficient cells; for induction of cell death: MSH2-deficient cells
Procedure: as §1, §2, §3, §4

[3] = tested on: MSH2-deficient HEC59 cells; settings: 48-72 hours after first exposure; cited from earlier work
[4] = tested on: A2780cis cells; experiment: MTS assay, platinum resistant ovarian cancer cells; type: cell-based; settings: for cell killing: 10 uM cisplatin, 20 uM rescinnamine, lisinopril
Procedure: (§5) A2780 is a cisplatinum-sensitive ovarian cancer cell line, […] its isogenic, but cisplatinum-resistant counterpart. Shown are average and standard deviations of a minimum of 3 individual experiments. Results were normalized to the untreated control. FIG. 5: MTS assays of platinum sensitive (A2780) and resistant (A2780cis) cells in the presence of 10 uM cisplatinum and increasing concentrations of rescinnamine. FIG. 6: MTS assay of A2780 and A2780cis ovarian cancer cells, untreated, treated with 10 uM cisplatin, 20 uM rescinnamine and lisinopril.

[5] = tested on: A2780 cells; experiment: MTS assay, platinum sensitive ovarian cancer cells; type: cell-based; settings: for cell killing: 10 uM cisplatin, 20 uM rescinnamine, lisinopril
Procedure: as §5

[6] = tested on: MSH2/6-dependent cell death; experiment: Caspase-3-dependent cell death assay; type: cell-based
[7] = tested on: RKO oxa cells; experiment: MTS assay, oxaliplatin insensitive colorectal cancer cells; type: cell-based
Text: FIG. 7: MTS assay of colorectal cancer cells sensitive (RKO) and insensitive (RKO oxa) to oxaliplatin, treated with oxaliplatin, rescinnamine and combination.

[8] = Homo sapiens, MTS, read-out: IC50 MSH2-proficient
[9] = Homo sapiens, read-out: IC50 in MSH2-proficient cells
[10] = Homo sapiens, MTS, read-out: IC50 MSH2-deficient
[11] = Homo sapiens, read-out: IC50 in MSH2-deficient cells
[12] = in the presence of 10 uM cisplatinum

Row | Molecule | IC50 [1, 8] [µM] | IC50 [1, 9] [µM] | IC50 [2, 10] [µM] | Fold difference [2] | MSH2 dependence of cell death response (words) [2] | further results
1 | COC(=O)[C@H]1[C@H]2C[C@@H]3c4[nH]c5cc(OC)ccc5c4CCN3C[C@H]2C[C@@H](OC(=O)c2ccc(OC)c(OC)c2)[C@@H]1OC [3,4-dimethoxy benzoyl, 3,4-Dimethoxybenzoyl reserpine] | 66 | 66 | 85 | 1.3 | significant MSH2-dependent cell death response | IC50 [2, 11]: 85 µM
2 | COC(=O)[C@H]1[C@H]2C[C@@H]3c4[nH]c5cc(OC)ccc5c4CCN3C[C@H]2C[C@@H](OC(=O)c2cc(OC)cc(OC)c2)[C@@H]1OC [3,5-dimethoxy benzoyl, 3,5-Dimethoxybenzoyl reserpine] | 38 |  | 36 | 0.95 |  | 
3 | COC(=O)[C@H]1[C@H]2C[C@@H]3c4[nH]c5cc(OC)ccc5c4CCN3C[C@H]2C[C@@H](OC(=O)c2cccc(OC)c2)[C@@H]1OC [3-methoxy benzoyl, 3-Methoxybenzoyl reserpine] | 88 |  | 83 | 0.94 |  | 
4 | COC(=O)[C@H]1[C@H]2C[C@@H]3c4[nH]c5cc(OC)ccc5c4CCN3C[C@H]2C[C@@H](OC(=O)c2ccc(OC)cc2)[C@@H]1OC [4-methoxy benzoyl, 4-Methoxybenzoyl reserpine] | 67 |  | 68 | 1.01 |  | 
5 | COC(=O)[C@H]1[C@H]2C[C@@H]3c4[nH]c5cc(OC)ccc5c4CCN3C[C@H]2C[C@@H](OC(=O)c2ccccc2)[C@@H]1OC [MJG-6-41, Benzoyl resperine] | 132 |  | 110 | 0.83 |  | 
6 | COC(=O)[C@H]1[C@H]2C[C@@H]3c4[nH]c5cc(OC)ccc5c4CCN3C[C@H]2C[C@@H](O)[C@@H]1OC [Methyl Reserpate, Methyl reserpate] |  |  |  |  | no preference for either cell line | induction of cell death [1]: only weakly induces cell death; induction of cell death [2]: only weakly induces cell death
7 | COC(=O)[C@H]1[C@H]2C[C@@H]3c4[nH]c5cc(OC)ccc5c4CCN3C[C@H]2C[C@@H](OC(=O)/C=C/c2ccccc2)[C@@H]1OC [cinnamoyl reserpine, Cinnamyl reserpine] | 130 | 130 | 150 | 1.2 | independent of functional MSH2 | IC50 [2, 11]: 150 µM
8 | N.N.[Cl][Pt][Cl] [cisplatin] |  |  |  | 1.6 | only a weak difference | IC50 ([1]; MTS, read-out: IC50 MSH2-proficient): 47 µM; increase in resistance in MSH2-deficient cells, late response [3]: two- to four-fold increase in resistance; IC50 ([2]; MTS, read-out: IC50 MSH2-deficient): 75 µM
9 | COC(=O)[C@H]1[C@H]2C[C@@H]3c4[nH]c5ccccc5c4CCN3C[C@H]2C[C@@H](OC(=O)c2cc(OC)c(OC)c(OC)c2)[C@@H]1OC [deserpidine] | 48 | 49 | 59 | 1.2 | no significant specificity for the presence of MSH2 | IC50 [2, 11]: 56 µM
10 | NCCCC[C@H](N[C@@H](CCc1ccccc1)C(=O)O)C(=O)N1CCC[C@H]1C(=O)O [lisinopril] |  |  |  |  |  | cell killing [4]: does not show the same effect; cell killing [5]: does not show the same effect
11 | COC(=O)[C@H]1[C@H]2C[C@@H]3c4[nH]c5cc(OC)ccc5c4CCN3C[C@H]2C[C@@H](OC(=O)c2ccc3c(c2)OCO3)[C@@H]1OC [methylendioxy-benzoyl, 3,4-Methylenedioxy benzoyl reserpine] | 51 | 51 | 36 | 0.71 | MSH2-deficient cells show a higher sensitivity | IC50 [2, 11]: 36 µM
12 | COC(=O)[C@H]1[C@H]2C[C@@H]3c4[nH]c5cc(OC)ccc5c4CCN3C[C@H]2C[C@@H](OC(=O)/C=C/c2cc(OC)c(OC)c(OC)c2)[C@@H]1OC [rescinnamine] | 39 | 39 | 87 | 2.6 | robust MSH2-dependent cell death response | MSH2-dependent induction of cell death relative to reserpine [1]: roughly 2 fold; cell killing [4]: overcoming cisplatinum resistance; cell death with increasing concentrations of rescinnamine [4, 12]: concentration-dependent, significant cell death; cell killing [5]: more effective in sensitive ovarian cancer cells than cisplatinum; cell death with increasing concentrations of rescinnamine [5, 12]: concentration-dependent, significant cell death; induction of MSH2/6-dependent cell death [6]: induces the targeted, MSH2/6-dependent cell death; overcoming oxaliplatin resistance [7]: overcomes oxaliplatin resistance, albeit not to the same extent as cisplatinum resistance
13 | COC(=O)[C@H]1[C@H]2C[C@@H]3c4[nH]c5cc(OC)ccc5c4CCN3C[C@H]2C[C@@H](OC(=O)c2cc(OC)c(OC)c(OC)c2)[C@@H]1OC [reserpine] | 61 | 61 | 93 | 1.5 | robust MSH2-dependent cell death response | MSH2 dependence of cell death response (words) ([2]; listed as Reserpine): significant increase in resistance
14 | Evodiamine |  |  |  |  |  | induction of cell death [1]: no significant cytotoxic effect; induction of cell death [2]: no significant cytotoxic effect
